# Where two headings read alike, the source gives them in different places.
# B1: AlkB-Fe^++ (protein, UniProt P05050 1-216, looked up)
# Alpha-ketoglutarate-dependent …: MLDLFADAEPWQEPLAAGAVILRRFAFNAAEQLIRDINDVASQSPFRQMVTPGGYTMSVAMTNCGHLGWTTHRQGYLYSPIDPQTNKPWPAMPQSFHNLCQRAATAAGYPDFQPDACLINRYAPGAKLSLHQDKDEPDLRAPIVSVSLGLPAIFQFGGLKRNDPLKRLLLEHGDVVVWGGESRLFYHGIQPLKAGFHPLTIDCRYNLTFRQAGKKE
# modifications: Fe2+ bound
# What was measured:
# [1] = target: T1, AlkB-Fe^++ (E. coli AlkB demethylase) (Escherichia coli, UniProt P05050); assay: Ligand binding to AlkB-Fe++ confined inside ClyA-AS nanopore, single-channel ionic current recording
# T1 construct: made in house; host or cells: E. cloni EXPRESS BL21(DE3) E. coli
# T1 sequence (P05050 with tags, fused parts or gaps): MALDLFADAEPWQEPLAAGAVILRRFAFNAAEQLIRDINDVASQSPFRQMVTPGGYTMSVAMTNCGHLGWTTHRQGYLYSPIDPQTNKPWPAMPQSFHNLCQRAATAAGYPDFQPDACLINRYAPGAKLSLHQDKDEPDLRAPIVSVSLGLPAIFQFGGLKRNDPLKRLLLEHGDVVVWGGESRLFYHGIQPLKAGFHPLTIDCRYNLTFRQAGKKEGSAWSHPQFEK
# Protocol: The applied potential refers to the potential of the trans electrode. ClyA-AS nanopores were inserted into lipid bilayers from the cis compartment, which was connected to the ground electrode. The two compartments were separated by a 25 μm thick polytetrafluoroethylene film (Goodfellow Cambridge Limited) containing an orifice of ˜100 μm in diameter. The aperture was pretreated with ˜5 μl of 10% hexadecane in pentane and a bilayer was formed by the addition of ˜10 μL of 1,2-diphytanoyl-sn-glycero-3-phosphocholine (DPhPC) in pentane (10 mg/mL) to both electrophysiology chambers. Typically, the addition of 0.01-0.1 ng of oligomeric ClyA-AS to the cis compartment (0.5 mL) was sufficient to obtain a single channel. […] Electrical recordings were carried out in 150 mM NaCl, 15 mM Tris.HCl pH 8.0 (AlkB experiments) or 150 mM NaCl, 15 mM Tris.HCl pH 7.5 (DHFR experiments). The temperature of the recording chamber was maintained at 28° C. by water circulating through a metal case in direct contact with the bottom and sides of the chamber.
# (§1) Electrical signals from planar bilayer recordings were amplified using an Axopatch 200B patch clamp amplifier (Axon Instruments) and digitized with a Digidata 1440 A/D converter (Axon Instruments). Data were recorded by using the Clampex 10.4 software (Molecular Devices) and the subsequent analysis was carried out with the Clampfit software (Molecular Devices). Electrical recordings were performed in 150 mM NaCl, 15 mM Tris.HCl pH 8.0 (AlkB) or pH 7.5 (DHFR) by applying a 2 kHz low-pass Bessel filter and a 10 kHz sampling rate. For further analysis traces were filtered digitally with a Bessel (8-pole) low-pass filter with a 50 Hz cut-off. Residual current values (IRES%) were calculated from blocked pore current values (IB) and open pore current values (IO) as IRES %=100*IB/IO. IB and IO were determined from Gaussian fits to all point current histograms (0.05 pA bin size) for at least 15 individual protein blockades. ΔIRES % values were calculated from IRES % using propagation of errors.
# Current transitions from level 1 were analyzed with the “single-channel search” function in Clampfit. The detection threshold to collect the ligand-induced events for AlkB was set to 4 pA and events shorter than 10 ms were ignored. […] The resulting event dwell times (toff) and the time between events (ton) were binned together as cumulative distributions and fitted to a single exponential to retrieve the ligand-induced lifetimes (τoff) and the ligand-induced event frequencies (f=1/τon). The process of event collection was monitored manually. For AlkB, final values of τon and τoff were based on average values derived from at least 3 single channel experiments at each concentration. Each experiment analysed more than 8 AlkB blockades. At the low ligand concentrations (0.2 mM) about 100 ligand-binding events were measured. Otherwise more than 150 events were collected. […] Subsequently, the ton values were binned together as cumulative distributions and fitted to a single exponential fit to retrieve characteristic τon values. The values for koff represented in FIG. 2b and FIG. 4b were determined by taking the average±standard deviations of 1/toff of at least 3 single channel experiments. The values of the association rate constants (kon) were determined from the slope of the linear regression curves calculated from the dependency of the event frequencies (f=1/τon) on the ligand concentration (OriginLab, FIGS. 2b and 4b). Graphs were made with Origin (OriginLab Corporation) or Clampfit software (Molecular Devices).
# 9, 872-877; Bleijlevens, B. et al. (2012) Biochem. 2012, 51, 3334-3341].
# [2] = target: SBD1 (Lactococcus lactis, UniProt Q9CES5); assay: Asparagine binding to SBD1 inside type I ClyA-AS nanopore
# Chain of SBD1 (Q9CES5 entry or part of it): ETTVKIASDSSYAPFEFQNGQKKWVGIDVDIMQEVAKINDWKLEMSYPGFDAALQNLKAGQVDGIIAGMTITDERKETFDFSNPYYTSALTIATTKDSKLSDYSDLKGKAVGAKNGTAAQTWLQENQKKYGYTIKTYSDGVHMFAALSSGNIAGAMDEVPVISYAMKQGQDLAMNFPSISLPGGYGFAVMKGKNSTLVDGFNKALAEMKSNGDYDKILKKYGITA
# Protocol: The interaction of SBD1 with asparagine was sampled using type I ClyA-AS nanopores. ClyA-AS (C87A/L99Q/E103G/F166Y/I203V/C285S/K294R/H307Y). In 150 mM NaCl and 15 mM Tris-HCl (pH 7.5), the addition of 74 nM of SBD1 to the cis compartment of Type I ClyA-AS induced transient current blockades at negative applied potentials (trans). […] Every 3.5±0.1 s^−1 (mean±S.E., n=212) the current switched to Level II (Ires %=66.8±0.4%, N=5) with a lifetime of 109±1 ms (mean±S.E., n=340). The protein blockades released spontaneously after 4.2±1.8 s (mean±S.E., n=291).
# The dissociation constant was determined by titrating the substrate and plotting the relative closed population (CL/(O+CL)), determined from the area of the all point current histogram, versus the concentration. […] The closing and opening rate constants were determined from the inverse of the open and closed state lifetimes respectively and were plotted versus the asparagine concentration. The closing rate was linearly dependent on the substrate concentration and the slope of the linear fit gave the kclosing=1.2×10^7 s^−1 M^−1.
# [3] = target: SBD2 (Lactococcus lactis, UniProt Q9CES5); assay: Glutamine binding to SBD2 inside type I ClyA-AS nanopore
# Chain of SBD2 (Q9CES5 entry or part of it): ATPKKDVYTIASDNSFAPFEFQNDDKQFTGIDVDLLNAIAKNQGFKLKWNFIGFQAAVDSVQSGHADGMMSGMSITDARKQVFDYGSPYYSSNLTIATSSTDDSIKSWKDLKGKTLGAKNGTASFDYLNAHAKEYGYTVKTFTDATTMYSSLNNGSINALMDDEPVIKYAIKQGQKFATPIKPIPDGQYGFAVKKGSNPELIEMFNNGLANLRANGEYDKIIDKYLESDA
# Protocol: The interaction of SBD2 with glutamine was sampled using type I ClyA-AS nanopores at −100 mV. The addition of 72 nM of SBD2 induced a current blockade that fluctuated between two levels I (Ires %=63.6±0.3%, τ=256±5 ms, N=3) and level III (Ires %=61.0±0.2%, τ=145±13 ms, N=3). Protein blockades remained inside the nanopore for 3.9±0.7 s (mean±S.E., n=225). Rarely the current visited an additional ionic current level, Level II (Ires %=62.5±0.3%, τ=18±1 ms, n=856, N=3).
# We studied ligand binding by stepwise addition of glutamine at concentrations ranging from 200 nM to 3 μM. […] Binding rates were determined from the lifetimes as described above. Upon linear fitting of the binding rate curve the glutamine binding rates from Level I and III were determined. […] The opening rate constant was determined by the intercept at zero koff=39.7 s^1.
# [4] = tested on: Type I ClyA-AS nanopore; assay: Current blockades from capture of protein adaptors by Type I ClyA-AS nanopore; set-up: species or system S. Typhi; conditions: ~4 nM cis, −60 mV
# Protocol: The applied potential refers to the potential of the trans electrode. ClyA-AS nanopores were inserted into lipid bilayers from the cis compartment, which was connected to the ground electrode. The two compartments were separated by a 25 μm thick polytetrafluoroethylene film (Goodfellow Cambridge Limited) containing an orifice of ˜100 μm in diameter. The aperture was pretreated with ˜5 μl of 10% hexadecane in pentane and a bilayer was formed by the addition of ˜10 μL of 1,2-diphytanoyl-sn-glycero-3-phosphocholine (DPhPC) in pentane (10 mg/mL) to both electrophysiology chambers. […]
# as §1, with “Electrical recordings were performed in 150 mM NaCl, 15 mM Tris.HCl pH 8.0 (AlkB) or pH 7.5 (DHFR) by applying a 2 kHz low-pass Bessel filter and a 10 kHz sampling rate. For further analysis traces were filtered digitally with a Bessel (8-pole) low-pass filter with a 50 Hz cut-off.” left out
molecule,measurement,setting,value
"O=C(O)CCC(=O)O [SUC, succinate]",L2B ΔIRES % (ligand-induced current enhancement from L2),"[1]; −60 mV, 150 mM NaCl, 15 mM Tris HCl pH 8.0, 28° C., ligand cis",+2.1 ± 1.0%
same,mean duration (toff) of ligand-induced events,"[1]; −60 mV, ligand cis",61 ± 11 ms
same,koff −60 mV,"[1]; −60 mV, pH 8.0, 28° C.",16.6 ± 2.6 s⁻¹
same,kon −60 mV,"[1]; −60 mV, pH 8.0, 28° C., slope of event frequency vs concentration",9.2 ± 1.3 × 10^2 s^−1 M^−1
NC(=O)C[C@H](N)C(=O)O [asparagine],Kd,[2],470 ± 30 nM
same,kon,"[2]; pH 7.5, read-out: kclosing",1.2e+07 M⁻¹ s⁻¹
same,koff,"[2]; pH 7.5, read-out: kopening",9.4 s⁻¹
NC(=O)CC[C@H](N)C(=O)O [glutamine],Kd,[3],1270 ± 140 nM
same,kon,"[3]; read-out: kon, binding from Level I",3.7e+07 M⁻¹ s⁻¹
same,kon,"[3]; read-out: kon, binding from Level II (so in the source)",3.8e+07 M⁻¹ s⁻¹
same,koff (opening rate constant),"[3]; −100 mV, intercept at zero",39.7 s^1
B1,AlkB-Fe++ blockades not showing ligand-induced transitions,[1],About 30%
same,time trapped inside the nanopore,[4],several minutes
